# Experimental data from ChEMBL document CHEMBL1155173, “Modulation of the cellular accumulation and intracellular activity of daptomycin towards phagocytized Staphylococcus aureus by the P-glycoprotein (MDR1) efflux transporter in human THP-1 macrophages and madin-darby canine kidney cells” (Antimicrob Agents Chemother, 2007).
# Active and inactive are the calls of the source. The calls are words filed in the database; no cut-off is given here.
# Columns and labels:
# [1] = system: Staphylococcus aureus; assay: Antibacterial activity against methicillin-sensitive Staphylococcus aureus ATCC 25923 phagocytized in human THP1 cells after 24 hrs in presence of 1 mg/liter daptomycin; format: functional, organism-based; conditions: THP-1
# [2] = system: Staphylococcus aureus; assay: Antibacterial activity against methicillin-sensitive Staphylococcus aureus ATCC 25923 phagocytized in human THP1 cells after 24 hrs; format: functional, organism-based; conditions: ATCC 25923, THP-1, 24 h
# [3] = system: Staphylococcus aureus; assay: Antibacterial activity against methicillin-sensitive Staphylococcus aureus ATCC 25923 phagocytized in human THP1 cells assessed as concentration resulting in no apparent bacterial growth after 24 hrs; format: functional, THP-1
# [4] = system: Staphylococcus aureus; assay: Antibacterial activity against methicillin-sensitive Staphylococcus aureus ATCC 25923 phagocytized in human THP1 cells assessed as decrease in CFU at 1 mg/liter after 24 hrs; format: functional, THP-1
# [5] = system: Staphylococcus aureus; assay: Antibacterial activity against methicillin-sensitive Staphylococcus aureus ATCC 25923 phagocytized in human THP1 cells after 24 hrs in presence of 100 uM verapamil; format: functional, organism-based; conditions: ATCC 25923, THP-1, 24 h
# [6] = system: THP-1; assay: Cellular uptake in methicillin-sensitive Staphylococcus aureus ATCC 25923 phagocytized in human THP1 cells assessed as apparent cellular to extracellular concentration ratio at 250 mg/liter after 24 hrs under 2-deoxyglucose-induced ATP depleted condition by fluorimetry; format: ADME, cell-based; conditions: thp-1, 24 h
# [7] = system: Staphylococcus aureus; assay: Antibacterial activity against methicillin-sensitive Staphylococcus aureus ATCC 25923 phagocytized in human THP1 cells assessed as concentration resulting in no apparent bacterial growth after 24 hrs in presence of 100 uM verapamil; format: functional, THP-1
# [8] = system: Staphylococcus aureus; assay: Antibacterial activity against methicillin-sensitive Staphylococcus aureus ATCC 25923 phagocytized in human THP1 cells assessed as decrease in CFU at 1 mg/liter after 24 hrs in presence of 100 uM verapamil; format: functional, THP-1
# [9] = system: Staphylococcus aureus; assay: Antibacterial activity against methicillin-sensitive Staphylococcus aureus ATCC 25923 phagocytized in human THP1 cells after 24 hrs in presence of 0.5 uM elacridar; format: functional, organism-based; conditions: ATCC 25923, THP-1, 24 h
# [10] = system: Staphylococcus aureus; assay: Antibacterial activity against methicillin-sensitive Staphylococcus aureus ATCC 25923 phagocytized in human THP1 cells assessed as concentration resulting in no apparent bacterial growth after 24 hrs in presence of 0.5 uM elacridar; format: functional, THP-1
# [11] = system: Staphylococcus aureus; assay: Antibacterial activity against methicillin-sensitive Staphylococcus aureus ATCC 25923 phagocytized in human THP1 cells assessed as decrease in CFU at 1 mg/liter after 24 hrs in presence of 0.5 uM elacridar; format: functional, THP-1
# [12] = system: Staphylococcus aureus; assay: Antibacterial activity against methicillin-sensitive Staphylococcus aureus ATCC 25923 phagocytized in wild type MDCK cells after 24 hrs; format: functional, organism-based; conditions: ATCC 25923, MDCK
# [13] = system: Staphylococcus aureus; assay: Antibacterial activity against methicillin-sensitive Staphylococcus aureus ATCC 25923 phagocytized in wild type MDCK cells assessed as concentration resulting in no apparent bacterial growth after 24 hrs; format: functional
# [14] = system: Staphylococcus aureus; assay: Antibacterial activity against methicillin-sensitive Staphylococcus aureus ATCC 25923 phagocytized in wild type MDCK cells assessed as decrease in CFU at 1 mg/liter after 24 hrs; format: functional
# [15] = system: Staphylococcus aureus; assay: Antibacterial activity against methicillin-sensitive Staphylococcus aureus ATCC 25923 phagocytized in wild type MDCK cells after 24 hrs in presence of 100 uM verapamil; format: functional, organism-based; conditions: ATCC 25923, MDCK
# [16] = system: Staphylococcus aureus; assay: Antibacterial activity against methicillin-sensitive Staphylococcus aureus ATCC 25923 phagocytized in wild type MDCK cells assessed as concentration resulting in no apparent bacterial growth after 24 hrs in presence of 100 uM verapamil; format: functional
# [17] = system: Staphylococcus aureus; assay: Antibacterial activity against methicillin-sensitive Staphylococcus aureus ATCC 25923 phagocytized in wild type MDCK cells assessed as decrease in CFU at 1 mg/liter after 24 hrs in presence of 100 uM verapamil; format: functional
# [18] = system: Staphylococcus aureus; assay: Antibacterial activity against methicillin-sensitive Staphylococcus aureus ATCC 25923 phagocytized in MDCK cells over expressing human […] at 1 mg/liter after 24 hrs; format: functional, organism-based; conditions: ATCC 25923, MDCK
# [19] = system: Staphylococcus aureus; assay: Antibacterial activity against methicillin-sensitive Staphylococcus aureus ATCC 25923 phagocytized in MDCK cells over expressing human […] assessed as concentration resulting in no apparent bacterial growth after 24 hrs; format: functional
# [20] = system: Staphylococcus aureus; assay: Antibacterial activity against methicillin-sensitive Staphylococcus aureus ATCC 25923 phagocytized in MDCK cells over expressing human […] assessed as decrease in CFU at 1 mg/liter after 24 hrs; format: functional
# [21] = system: Staphylococcus aureus; assay: Antibacterial activity against methicillin-sensitive Staphylococcus aureus ATCC 25923 phagocytized in MDCK cells over expressing human […] after 24 hrs in presence of 100 uM verapamil; format: functional, organism-based; conditions: ATCC 25923, MDCK
# [22] = system: Staphylococcus aureus; assay: Antibacterial activity against methicillin-sensitive Staphylococcus aureus ATCC 25923 phagocytized in MDCK cells over expressing human […] assessed as concentration resulting in no apparent bacterial growth after 24 hrs in presence of 100 uM verapamil; format: functional
# [23] = system: Staphylococcus aureus; assay: Antibacterial activity against methicillin-sensitive Staphylococcus aureus ATCC 25923 phagocytized in MDCK cells over expressing human […] assessed as decrease in CFU at 1 mg/liter after 24 hrs in presence of 100 uM verapamil; format: functional
# [24] = system: THP-1; assay: Cellular uptake in methicillin-sensitive Staphylococcus aureus ATCC 25923 phagocytized in human THP1 cells assessed as apparent cellular to extracellular concentration ratio at 250 mg/liter after 24 hrs by fluorimetry; format: ADME, cell-based; conditions: thp-1, 24 h
# [25] = system: THP-1; assay: Cellular uptake in methicillin-sensitive Staphylococcus aureus ATCC 25923 phagocytized in human THP1 cells assessed as apparent cellular to extracellular concentration ratio at 250 mg/liter after 24 hrs by fluorimetry in presence of 100 uM verapamil; format: ADME, cell-based; conditions: thp-1, 24 h
# [26] = system: THP-1; assay: Cellular uptake in methicillin-sensitive Staphylococcus aureus ATCC 25923 phagocytized in human THP1 cells assessed as apparent cellular to extracellular concentration ratio at 250 mg/liter after 24 hrs by fluorimetry in presence of 1 uM ouabain; format: ADME, cell-based; conditions: thp-1, 24 h
# [27] = system: THP-1; assay: Cellular uptake in methicillin-sensitive Staphylococcus aureus ATCC 25923 phagocytized in human THP1 cells assessed as apparent cellular to extracellular concentration ratio at 250 mg/liter after 24 hrs by fluorimetry in presence of 250 uM gemfibrozil; format: ADME, cell-based; conditions: thp-1, 24 h
# [28] = system: MDCK; assay: Cellular uptake in methicillin-sensitive Staphylococcus aureus ATCC 25923 phagocytized in wild type MDCK cells assessed as apparent cellular to extracellular concentration ratio at 250 mg/liter after 24 hrs by fluorimetry; format: ADME, cell-based, Canis lupus familiaris; conditions: dog
# [29] = system: MDCK; assay: Cellular uptake in methicillin-sensitive Staphylococcus aureus ATCC 25923 phagocytized in wild type MDCK cells assessed as apparent cellular to extracellular concentration ratio at 250 mg/liter after 24 hrs by fluorimetry in presence of 100 uM verapamil; format: ADME, cell-based, Canis lupus familiaris; conditions: dog
# [30] = system: MDCK; assay: Cellular uptake in methicillin-sensitive Staphylococcus aureus ATCC 25923 phagocytized in wild type MDCK cells assessed as apparent cellular to extracellular concentration ratio at 250 mg/liter after 24 hrs by fluorimetry in presence of 1 uM ouabain; format: ADME, cell-based, Canis lupus familiaris; conditions: dog
# [31] = system: MDCK; assay: Cellular uptake in methicillin-sensitive Staphylococcus aureus ATCC 25923 phagocytized in wild type MDCK cells assessed as apparent cellular to extracellular concentration ratio at 250 mg/liter after 24 hrs by fluorimetry in presence of 250 uM gemfibrozil; format: ADME, cell-based, Canis lupus familiaris; conditions: dog
# [32] = system: MDCK; assay: Cellular uptake in methicillin-sensitive Staphylococcus aureus ATCC 25923 phagocytized in MDCK cells over expressing human MDR1 assessed as apparent cellular to extracellular concentration ratio at 250 mg/liter after 24 hrs by fluorimetry; format: ADME, cell-based, Canis lupus familiaris; conditions: dog
# [33] = system: MDCK; assay: Cellular uptake in methicillin-sensitive Staphylococcus aureus ATCC 25923 phagocytized in MDCK cells over expressing human MDR1 cells assessed as apparent cellular to extracellular concentration ratio at 250 mg/liter after 24 hrs by fluorimetry in presence of 100 uM verapamil; format: ADME, cell-based, Canis lupus familiaris; conditions: dog
# [34] = system: MDCK; assay: Cellular uptake in methicillin-sensitive Staphylococcus aureus ATCC 25923 phagocytized in MDCK cells over expressing human MDR1 cells assessed as apparent cellular to extracellular concentration ratio at 250 mg/liter after 24 hrs by fluorimetry in presence of 1 uM ouabain; format: ADME, cell-based, Canis lupus familiaris; conditions: dog
# [35] = system: MDCK; assay: Cellular uptake in methicillin-sensitive Staphylococcus aureus ATCC 25923 phagocytized in MDCK cells over expressing human MDR1 cells assessed as apparent cellular to extracellular concentration ratio at 250 mg/liter after 24 hrs by fluorimetry in presence of 250 uM gemfibrozil; format: ADME, cell-based, Canis lupus familiaris; conditions: dog
# [36] = system: THP-1; assay: Decrease in intracellular calcium concentration in human THP1 cells at 50 uM after 60 mins; format: functional; set-up: scale not given: the % may be the effect or the level left
# [37] = system: THP-1; assay: Decrease in intracellular calcium concentration in human THP1 cells at 250 uM after 60 mins; format: functional, cell-based
# [38] = system: THP-1; assay: Decrease in intracellular calcium concentration in human THP1 cells at 100 uM after 60 mins; format: functional; set-up: scale not given: the % may be the effect or the level left
# [39] = system: THP-1; assay: Cellular uptake in methicillin-sensitive Staphylococcus aureus ATCC 25923 phagocytized in human mdr1 siRNAs- induced MDR1 deficient human THP1 cells assessed as increase accumulation at 250 mg/liter after 24 hrs by […]; format: ADME, cell-based; conditions: thp-1, 24 h
compound,measurement,setting,value
COc1cc2c(cc1OC)CN(CCc1ccc(NC(=O)c3cccc4c(=O)c5cccc(OC)c5[nH]c34)cc1)CC2,Activity,[1],Dose-dependent effect
CCCCCCCCCC(=O)N[C@@H](Cc1c[nH]c2ccccc12)C(=O)N[C@H](CC(N)=O)C(=O)N[C@@H](CC(=O)O)C(=O)N[C@@H]1C(=O)NCC(=O)N[C@@H](CCCN)C(=O)N[C@@H](CC(=O)O)C(=O)N[C@H](C)C(=O)N[C@@H](CC(=O)O)C(=O)NCC(=O)N[C@H](CO)C(=O)N[C@@H]([C@H](C)CC(=O)O)C(=O)N[C@@H](CC(=O)c2ccccc2N)C(=O)O[C@@H]1C,EC50,[2],1.14 µg/mL
same,Activity,[3],1.3 mg/L
same,log10cfu,[4],-1.6
same,EC50,[5],0.31 µg/mL
same,Ratio,[6],0.82
same,Activity,[7],0.4 mg/L
same,log10cfu,[8],-1.82
same,EC50,[9],0.27 µg/mL
same,Activity,[10],0.4 mg/L
same,log10cfu,[11],-1.67
same,EC50,[12],0.62 µg/mL
same,Activity,[13],0.6 mg/L
same,log10cfu,[14],-1.7
same,EC50,[15],0.18 µg/mL
same,Activity,[16],0.2 mg/L
same,log10cfu,[17],-2.01
same,EC50,[18],2.67 µg/mL
same,Activity,[19],2.1 mg/L
same,log10cfu,[20],-1.77
same,EC50,[21],0.7 µg/mL
same,Activity,[22],0.6 mg/L
same,log10cfu,[23],-1.78
same,Activity,[1],Dose-dependent effect
same,Ratio,[24],0.21
same,Ratio,[25],0.75
same,Ratio,[26],0.12
same,Ratio,[27],0.18
same,Ratio,[28],0.23
same,Ratio,[29],0.83
same,Ratio,[30],0.04
same,Ratio,[31],0.18
same,Ratio,[32],0.08
same,Ratio,[33],0.3
same,Ratio,[34],0.03
same,Ratio,[35],0.07
C[C@H](CCC(=O)[O-])C[C@H](C)C[C@H](C)C(=O)/C=C(\[O-])[C@H](C)C[C@H](C)C/C=C/[C@@H](C)[C@@H](O)[C@@H](C)[C@@H](O)C[C@@H]1CC[C@@](C)([C@H]2CC[C@@](C)([C@@H](C)O)O2)O1.[Ca+2] [IONOMYCIN CALCIUM],Activity,[36],75%
Cc1ccc(C)c(OCCCC(C)(C)C(=O)O)c1,Activity,[37],inactive
COc1ccc(CCN(C)CCCC(C#N)(c2ccc(OC)c(OC)c2)C(C)C)cc1OC (stereo unspecified) [VERAPAMIL],Activity,[1],Dose-dependent effect
same,Activity,[38],25%
C[C@@H]1O[C@@H](O[C@H]2C[C@@H](O)[C@]3(CO)[C@H]4[C@H](O)C[C@]5(C)[C@@H](C6=CC(=O)OC6)CC[C@]5(O)[C@@H]4CC[C@]3(O)C2)[C@H](O)[C@H](O)[C@H]1O [OUABAIN],Activity,[39],Active
